{"source": "ChEMBL document CHEMBL5365463", "about": "“Identification of a Self-Assembling Small-Molecule Cancer Vaccine Adjuvant with an Improved Toxicity Profile” (J Med Chem, 2023)", "key": {"[1]": {"tested_on": "BMDC", "assay": "Induction of IL-6 production in mouse BMDC cells at 100 uM", "type": "functional, cell-based"}, "[2]": {"tested_on": "RAW264.7", "assay": "Induction of apoptosis in mouse RAW264.7 cells assessed as apoptotic cells at 10 uM by flow cytometry analysis (reference value: 3.06 %)", "type": "functional"}, "[3]": {"assay": "Toxicity in BALB/c mouse assessed as increase in Mx2 expression at 100 to 1000 ug measured after 16 hrs in presence of hemagglutinin", "settings": "in vivo, dose 100-1000 µg"}, "[4]": {"tested_on": "RAW264.7", "assay": "Induction of apoptosis in mouse RAW264.7 cells assessed as apoptotic cells at 4 uM by flow cytometry analysis (reference value: 3.06 %)", "type": "functional"}, "[5]": {"tested_on": "RAW264.7", "assay": "Induction of apoptosis in mouse RAW264.7 cells assessed as live cells at 16 uM by flow cytometry analysis (reference value: 67.2 %)", "type": "functional"}, "[6]": {"tested_on": "RAW264.7", "assay": "Induction of apoptosis in mouse RAW264.7 cells assessed as apoptotic cells at 8 uM by flow cytometry analysis (reference value: 3.06 %)", "type": "functional"}, "[7]": {"tested_on": "Mus musculus", "assay": "Immuno-adjuvant activity in SV-immunized C57BL/6 mouse assessed as increase in HA-specific IgG1 titer level at 100 ug, sc administered immediately and on day 0, 14 and measured at day 21 by ELISA", "type": "functional, organism-based", "settings": "dose 100.0 µg, time 21.0 day"}, "[8]": {"tested_on": "RAW264.7", "assay": "Induction of apoptosis in mouse RAW264.7 cells assessed as live cells at 4 uM by flow cytometry analysis (reference value: 67.2 %)", "type": "functional"}, "[9]": {"tested_on": "BMDC", "assay": "Induction of immune response in TLR7 knockout mouse BMDC cells assessed as increase in TNF-alpha production at 10 to 100 uM incubated for 24 hrs by ELISA method", "type": "functional, cell-based", "settings": "dose 10-100 µM"}, "[10]": {"tested_on": "RAW264.7", "assay": "Induction of apoptosis in mouse RAW264.7 cells assessed as necrotic cells at 16 uM by flow cytometry analysis (reference value: 28.7 %)", "type": "functional"}, "[11]": {"tested_on": "RAW264.7", "assay": "Induction of apoptosis in mouse RAW264.7 cells assessed as necrotic cells at 8 uM by flow cytometry analysis (reference value: 28.7 %)", "type": "functional"}, "[12]": {"tested_on": "BMDC", "assay": "Induction of immune response in TLR7 knockout mouse BMDC cells assessed as increase in MIP-1alpha production at 10 to 100 uM incubated for 24 hrs by ELISA method", "type": "functional, cell-based", "settings": "dose 10-100 µM"}, "[13]": {"tested_on": "RAW264.7", "assay": "Induction of apoptosis in mouse RAW264.7 cells assessed as live cells at 10 uM by flow cytometry analysis (reference value: 67.2 %)", "type": "functional"}, "[14]": {"tested_on": "BMDC", "assay": "Induction of immune response in TLR7 knockout mouse BMDC cells assessed as increase in IL-6 production at 10 to 100 uM incubated for 24 hrs by ELISA method", "type": "functional, cell-based", "settings": "dose 10-100 µM"}, "[15]": {"tested_on": "RAW264.7", "assay": "Induction of apoptosis in mouse RAW264.7 cells assessed as live cells at 8 uM by flow cytometry analysis (reference value: 67.2 %)", "type": "functional"}, "[16]": {"tested_on": "RAW264.7", "assay": "Induction of apoptosis in mouse RAW264.7 cells assessed as necrotic cells at 12 uM by flow cytometry analysis (reference value: 28.7 %)", "type": "functional"}, "[17]": {"tested_on": "RAW264.7", "assay": "Induction of apoptosis in mouse RAW264.7 cells assessed as live cells at 12 uM by flow cytometry analysis (reference value: 67.2 %)", "type": "functional"}, "[18]": {"assay": "Toxicity in BALB/c mouse assessed as effect on body weight loss at 1000 ug measured after 16 hrs in presence of hemagglutinin", "settings": "in vivo, dose 1000 µg"}, "[19]": {"tested_on": "BMDC", "assay": "Induction of immune response in TLR7 knockout mouse BMDC cells assessed as increase in CXCL10 production at 10 to 100 uM incubated for 24 hrs by ELISA method", "type": "functional, cell-based", "settings": "dose 10-100 µM"}, "[20]": {"assay": "Toxicity in BALB/c mouse assessed as reduction in leukocyte count measured after 16 hrs", "settings": "dose 100-1000 µg"}, "[21]": {"tested_on": "RAW264.7", "assay": "Induction of apoptosis in mouse RAW264.7 cells assessed as apoptotic cells at 16 uM by flow cytometry analysis (reference value: 3.06 %)", "type": "functional"}, "[22]": {"tested_on": "RAW264.7", "assay": "Induction of apoptosis in mouse RAW264.7 cells assessed as necrotic cells at 4 uM by flow cytometry analysis (reference value: 28.7 %)", "type": "functional"}, "[23]": {"tested_on": "RAW264.7", "assay": "Induction of apoptosis in mouse RAW264.7 cells assessed as necrotic cells at 10 uM by flow cytometry analysis (reference value: 28.7 %)", "type": "functional"}, "[24]": {"tested_on": "BMDC", "assay": "Induction of immune response in TLR7 knockout mouse BMDC cells assessed as increase in IFN-beta production at 10 to 100 uM incubated for 24 hrs by ELISA method", "type": "functional, cell-based", "settings": "dose 10-100 µM"}, "[25]": {"tested_on": "RAW264.7", "assay": "Induction of apoptosis in mouse RAW264.7 cells assessed as apoptotic cells at 12 uM by flow cytometry analysis (reference value: 3.06 %)", "type": "functional"}, "[26]": {"assay": "Toxicity in BALB/c mouse assessed as increase in Timp1 expression at 100 to 1000 ug measured after 16 hrs in presence of hemagglutinin", "settings": "in vivo, dose 100-1000 µg"}}, "note": "Active and inactive are the calls of the source. No cut-off for these calls is given here.", "data": [{"smiles": "C[C@H](CCC(=O)NCCCCCNC(=O)CC[C@@H](C)[C@H]1CC[C@H]2[C@@H]3[C@H](O)C[C@@H]4C[C@H](O)CC[C@]4(C)[C@H]3CC[C@]12C)[C@H]1CC[C@H]2[C@@H]3[C@H](O)C[C@H]4C[C@H](O)CC[C@]4(C)[C@H]3CC[C@]12C", "values": [{"measurement": "Activity", "setting": "[1]", "value": "Active"}]}, {"smiles": "C[C@H](CCC(=O)NCCCCCNC(=O)CC[C@@H](C)[C@H]1CC[C@H]2[C@@H]3CC[C@@H]4C[C@H](O)CC[C@]4(C)[C@H]3C[C@H](O)[C@]12C)[C@H]1CC[C@H]2[C@@H]3CC[C@@H]4C[C@H](O)CC[C@]4(C)[C@H]3C[C@H](O)[C@]12C", "values": [{"measurement": "Activity", "setting": "[2]", "value": 0.6, "unit": "%"}, {"measurement": "Activity", "setting": "[3]", "value": "Toxic"}, {"measurement": "Activity", "setting": "[4]", "value": 2.23, "unit": "%"}, {"measurement": "Activity", "setting": "[5]", "value": 11.6, "unit": "%"}, {"measurement": "Activity", "setting": "[6]", "value": 2.26, "unit": "%"}, {"measurement": "Activity", "setting": "[7]", "value": "Active"}, {"measurement": "Activity", "setting": "[8]", "value": 67.4, "unit": "%"}, {"measurement": "Activity", "setting": "[9]", "value": "inactive"}, {"measurement": "Activity", "setting": "[10]", "value": 85, "unit": "%"}, {"measurement": "Activity", "setting": "[11]", "value": 29.4, "unit": "%"}, {"measurement": "Activity", "setting": "[12]", "value": "inactive"}, {"measurement": "Activity", "setting": "[13]", "value": 33.5, "unit": "%"}, {"measurement": "Activity", "setting": "[14]", "value": "inactive"}, {"measurement": "Activity", "setting": "[15]", "value": 66.9, "unit": "%"}, {"measurement": "Activity", "setting": "[16]", "value": 69.7, "unit": "%"}, {"measurement": "Activity", "setting": "[17]", "value": 27.9, "unit": "%"}, {"measurement": "Activity", "setting": "[18]", "value": "Toxic"}, {"measurement": "Activity", "setting": "[19]", "value": "inactive"}, {"measurement": "Activity", "setting": "[20]", "value": "Dose-Dependent Effect"}, {"measurement": "Activity", "setting": "[21]", "value": 0.034, "unit": "%"}, {"measurement": "Activity", "setting": "[22]", "value": 28.6, "unit": "%"}, {"measurement": "Activity", "setting": "[23]", "value": 63.8, "unit": "%"}, {"measurement": "Activity", "setting": "[24]", "value": "inactive"}, {"measurement": "Activity", "setting": "[25]", "value": 0.13, "unit": "%"}, {"measurement": "Activity", "setting": "[26]", "value": "Toxic"}]}]}
